Legend:
gelatinase = test: Inhibition constant with gelatinase; type: biochemical
human ocular fibroblasts [1] = test: Contraction of fibroblast populated collagen gels (lattice area); type: cell-based; conditions: for contraction of gels (mean lattice area): 40 and 4 μg/ml, 7 days, vs hydroxamic acid control
Method: They were then removed from their substratum via a trypsinisation and were pelleted by centrifugation at 3000× g for 8 minutes. The supernatant was then discarded and the cell pellet resuspended in 1.1 ml of newborn calf serum. 100 μl of the suspension was removed and counted in a Coulter counter (Model ZF).
Triplicate gels were made by adding 1.05 ml of the concentrated medium to 1.8 ml of the type 1 collagen solution, mixing rapidly and then adding 0.45 ml of a cell suspension containing 300,000 cells and mixing rapidly.
1 ml aliquots of this gel were then added to petri dishes (area=8 cm^2) and then the dishes were rotated so that the gels were evenly distributed across the bottoms of the dishes. The gels were then incubated at 37° C. in 5% CO2 in air until they had solidified (usually 3 to 5 minutes). An area of the gel was then detached from the edge of each petri dish and 3 ml of normal growth medium solution (control 2), inhibitor test solution or buffer solution (control 1), were added. Each gel was then fully detached from the edges and bottom of the petri dish so that free-floating gels were obtained.
The gels, after solidification, were treated for 24 hours with 3 ml of each of the following test solutions:
The test and control solutions were replaced by 3 ml of the appropriate fresh solution after 24 hours. Photographs of the gel areas were taken on days 1 and 2 and were then digitised. The resulting data were processed by a computer and the gel areas were calculated. Phase-contrast photographs were taken of the top and middle of each gel after 1 and 2 days.
Test solutions were used in approximately 3 ml doses. For all contraction experiments cell morphology was monitored by phase contrast microscopy and the growth medium was changed every 3 to 4 days.
Collagen gels were seeded with either 100,000 or 500,000 cells. […] The gels were monitored for 7 days.
They were exposed to inhibitor and control solutions in the following ways:
The experiment was carried out as for (a) above with 1×10^5 cells per lattice and the test solutions used were BB-94 4 μg/ml, BB-94 0.4 μg/ml and control with vehicle (0.1% vol/vol DMSO). The development of the lattices was followed for seven days after seeding.
The experiment was carried out as for (d) above except that the test solutions used were 1:50 (vol/vol) of antibodies in growth medium. The antibodies used were antibodies to MMPs 1, 2, 3 and 9, obtained from Biogenesis Ltd., (Poole, U.K.). A control solution of 0.1% sodium azide and 0.14% rabbit serum in PBS diluted to 1:50 in growth medium was also used.

[2] = tested on: Human ocular fibroblasts (Tendon's capsule fibroblasts); test: Toxicity by tritiated thymidine incorporation (DNA synthesis); type: cell-based; conditions: 80.0, 8.0 and 0.8 μg/ml; 24 hours; medium plus 10% serum and vehicle
Method: The toxicity of the inhibitors was tested by measuring DNA synthesis by tritiated thymidine incorporation. The assay was adapted from a procedure previously described, Woost, P. G. et al 1992.
Human ocular fibroblasts (Tendon's capsule fibroblasts) were cultured in Trimix (DMEM/F-10/M-199) cell culture medium (available from GIBCO/BRL) supplemented with 10% bovine calf serum and grown to confluency in T-75 tissue culture flasks. (That is flasks having a surface area of 75 cm^2.) The cells were split and seeded into 24 well plates at a density of 1×10^4/well in 1.0 ml of medium with 10% bovine calf serum. The cells were incubated for 24-36 hours or until they reached 60-70% confluency. The medium was then changed to serum-free Trimix and the cells were incubated for an additional 24 hours. The cells were then incubated in quadruplicate wells for 24 hours with 1.0 μCi/well ^3H-thymidine in the following conditions: serum-free medium (Trimix), medium plus 10% serum, medium plus 10% serum and vehicle, alone or with the inhibitors. The vehicle was a buffered acetate solution. The solutions comprising medium with 10% serum and vehicle, alone or with inhibitors, were prepared by the method described in Example 1, section (c), above, using Trimix instead of the HEPES buffered DMEM. […] Radioactivity was determined by liquid scintillation counting […] of the solubilized cells. […]

human ocular fibroblasts [3] = test: Cytotoxicity: cell count and trypan blue dye exclusion; type: cell-based; conditions: 40 and 4 μg/ml; 2×10^4 cells per well; vs control medium
Method: This experiment was carried out substantially according to the method of Example 2, except that cells were seeded at 2×10^4 cells per well, cultured without radioactive material and were exposed to control medium (DMEM/10% NCS) or Galardin at 40 μg/ml and 4 μg/ml concentration. […] Wells were harvested and cells counted on a haemocytometer, see FIG. 3E for the results, and the percentage of viable cells in each well was measured using the trypan blue dye exclusion test, see FIG. 3F for the results.

[4] = tested on: MMP activity (proteolytically active species) of human Tenon's capsule fibroblasts; test: Gelatin zymography of seeded collagen lattices; type: cell-based; conditions: treatment of seeded lattices
Method: Samples of conditioned medium and collagen lattices (1×10^5 cells/lattice) were collected on days 1, 3 and 7 post seeding. Lattices were washed in phosphate buffered saline (PBS; 3×3 ml) prior to homogenisation in 0.5% (vol/vol) Triton-X100 in PBS (Hunt et al. 1993]. Gelatin zymography [Heussen & Dowdle 1980] was then performed on these samples. Briefly, samples and prestained molecular weight standards were resolved on 10% tris glycine gels containing 0.1% gelatin (Novex, R&D Systems, Oxford, U.K.). Gels were then incubated for 30 minutes in renaturing buffer, 30 minutes in developing buffer followed by a further 18 hours in developing buffer at 37° C. (all Novex). Gels were than stained in 0.5% (wt/vol) commassie blue in 45% (vol/vol) water, 45% (vol/vol) methanol and 10% (vol/vol) glacial acetic acid, followed by destaining in 45% (vol/vol) water, 45% (vol/vol) water, 45% (vol/vol) methanol and 10% (vol/vol) glacial acetic acid. MMP activity appeared as clear bands on a blue background.

human dermal fibroblasts = test: Collagen lattice contraction, human dermal fibroblasts; type: cell-based; conditions: 40 μg/ml
Method: (§1) Collagen lattices (gels) were prepared as previously described in Example 1 and were seeded with 1×10^5 cells per lattice of:
(§2) The lattices were then exposed to growth medium containing Galardin at 40 μg/ml or hydroxamic acid at 100μM (control). The test solutions were made up as described in Example 3 above and approximately 3 ml dose of the appropriate test solutions were used.

[5] = tested on: rat parietal sheath fibroblasts; test: Collagen lattice contraction, rat parietal sheath fibroblasts; type: cell-based; conditions: 40 μg/ml
Method: as §1, §2

[6] = tested on: rat endotendon fibroblasts; test: Collagen lattice contraction, rat endotendon fibroblasts; type: cell-based; conditions: 40 μg/ml
Method: as §1, §2

[7] = tested on: human keratinocytes and human dermal fibroblasts; test: Contraction of artificial skin equivalent; type: cell-based; conditions: 40 μg/ml; 7 days; vs hydroxamic acid 100 μM
Method: The effect of an MMP inhibitor on the contraction of an artificial skin equivalent was tested. […] This lattice was then exposed to growth medium containing Galardin at 40 μg/ml or hydroxamic acid at 100μM (control).

ocular fibroblasts = test: Fibroblast morphology within collagen lattices (phase contrast microscopy); type: cell-based, human
Method: Collagen lattices seeded with ocular fibroblasts were prepared and exposed to MMP inhibitors, both synthetic chemicals and antibodies, as described in Example 3 above. Cellular morphology was monitored by phase contrast microscopy.

[8] = tested on: Tenons capsule fibroblast; test: Actin cytoskeleton staining with FITC-phalloidin; type: cell-based, human; conditions: 40 μg/ml
Method: Monolayer cultures of fibroblasts and collagen lattices (gels) seeded with 1×10^5 cells per lattice were prepared (as described in Example 1).
In order to assess whether this difference was owing to the direct effect of the inhibitor or to differences in the degree of invasion into the matrix, cells were exposed in monolayer culture to the inhibitor and the cytoskeleton was-stained. See FIGS. 10A (control) and 10B (exposed to inhibitor). The arrows indicate the stress fibres on the cells in the monolayer culture.

stromelysin = stromelysin (Homo sapiens, UniProt P08254); test: biochemical
Sequence of stromelysin (P08254 100-477): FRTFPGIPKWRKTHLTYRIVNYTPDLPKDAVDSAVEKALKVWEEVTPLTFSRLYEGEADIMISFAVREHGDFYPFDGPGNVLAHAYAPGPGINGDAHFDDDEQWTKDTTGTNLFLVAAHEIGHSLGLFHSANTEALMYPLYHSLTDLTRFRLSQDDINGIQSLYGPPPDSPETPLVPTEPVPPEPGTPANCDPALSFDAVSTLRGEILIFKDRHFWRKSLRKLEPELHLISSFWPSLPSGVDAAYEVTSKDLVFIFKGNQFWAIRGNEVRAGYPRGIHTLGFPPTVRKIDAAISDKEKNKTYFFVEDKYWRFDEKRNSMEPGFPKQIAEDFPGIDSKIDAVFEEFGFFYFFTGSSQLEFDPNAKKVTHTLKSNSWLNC

[9] = 1×10^5 cells per lattice, 7 days, vs hydroxamic acid 100 μM

CNC(=O)[C@H](Cc1c[nH]c2ccccc12)NC(=O)[C@@H](CC(=O)NO)CC(C)C [GM6001, N-[2(R)-2-(hydroxamidocarbonylmethyl)-4-methylpentanoyl]-L-tryptophan methylamide]
Ki (gelatinase): 0.4 nM
contraction of lattices already contracted for 5 days (human ocular fibroblasts [1]; 4 μg/ml from day 5 for 25 days, vs control solution): inhibited contraction
contraction after replacement of inhibitor by control solution (reversibility) (human ocular fibroblasts [1]; 4 μg/ml until day 14, then control solution): significant increase in contraction from day 14 onwards
contraction of lattices already contracted for 5 days (human ocular fibroblasts [1]; 40 μg/ml from day 5 for 25 days): stronger inhibitory effect than the 4 μg/ml solution
contraction of collagen gels (gel area) (human ocular fibroblasts [1]; 400, 40 and 4 μg/ml, 100,000 cells per gel, 2 days, vs buffer and normal growth medium): inhibited the contraction of the collagen gels
dose dependence of inhibition of gel contraction (human ocular fibroblasts [1]; 400, 40 and 4 μg/ml, 2 days): dose dependent
viability of cells in the collagen gels at end of test (phase contrast microscopy) (human ocular fibroblasts [1]; 400, 40 and 4 μg/ml, 2 days): appeared to be viable
contraction of gels (mean lattice area) (human ocular fibroblasts [1]; 100,000 cells per lattice): much less than that of gels exposed to control solutions
contraction of gels (mean lattice area) (human ocular fibroblasts [1]; 500,000 cells per lattice): much less than that of gels exposed to the control solution
contraction of lattices (mean lattice area) (human ocular fibroblasts [1]; continual exposure to 4 μg/ml, 1×10^5 cells/lattice, up to 40 to 50 days): very little contraction
toxicity (3H-thymidine incorporation) [2]: no significant toxicity
cell number per well (haemocytometer) (human ocular fibroblasts [3]): did not adversely affect
cell viability (percentage of viable cells, trypan blue) (human ocular fibroblasts [3]): did not adversely affect
proteolytically active species in gelatin zymography [4]: abolishment of the four proteolytically active species
contraction of lattices (mean lattice area) (human dermal fibroblasts; [9]): greatly reduced
cellular invasion into and migration through the surrounding matrix (human dermal fibroblasts; compared to controls): decreased cellular invasion into and migration through
contraction of lattices (mean lattice area) [5, 9]: greatly reduced
cellular invasion into and migration through the surrounding matrix ([5]; compared to controls): decreased cellular invasion into and migration through
contraction of lattices (mean lattice area) [6, 9]: greatly reduced
cellular invasion into and migration through the surrounding matrix ([6]; compared to controls): decreased cellular invasion into and migration through
contraction of artificial skin equivalent (mean lattice area) [7]: less contraction than those exposed to the control solution
cell morphology in lattices (ocular fibroblasts; 4 μg/ml, 7 days post seeding): Small cytoplasmic projections
invasion into the surrounding collagen matrix (ocular fibroblasts; synthetic inhibitors as in Example 3, compared to controls): decreased invasion into the surrounding collagen matrix
actin stress fibres on cells populating collagen gels ([8]; collagen lattice): do not appear to be present
actin cytoskeleton in monolayer culture ([8]; monolayer culture, compared to controls): did not appear to affect the actin cytoskeleton
Ki (stromelysin): 20 nM

CC(C)C[C@H](CC(=O)O)C(=O)N[C@@H](Cc1c[nH]c2ccccc12)C(=O)N[C@@H](C)c1ccccc1 [GM1489]
toxicity (3H-thymidine incorporation) [2]: no significant toxicity

Source: patent publication US6759432B2, “Medical use of matrix metalloproteinase inhibitors for inhibiting tissue contraction” (University of Florida Research Foundation, priority 1994, dated 2004)
